According to patent publication US9517221B2, “(2R)-2-propyloctanoic acid for functional brain disease” (ONO PHARMACEUTICAL CO., LTD., priority 2006, dated 2016):

Tests used:
[1] = test system: olfactory bulbectomized rats; experiment: Anxiolytic behavior on elevated plus maze of olfactory bulbectomized rats; assay type: in vivo, rat; conditions: for Time (seconds) stayed on closed arm (mean ± S. E.) / Time (seconds) stayed on open arm (mean ± S. E.): 5 minutes test 1 hour after 8 days administration
Procedure: SPF rats (Crlj: WI) were used in the test. The animal for olfactory bulbectomy was anesthetized with pentobarbital sodium (Nembutal R Injection, Dainippon Pharmaceutical, dose: 1 mL/kg (intraperitoneal administration)), and the head was fixed using a brain stereotaxic apparatus (ASI Instruments, Inc., NARISHIGE). After incising the head skin, holes are opened at right and left olfactory bulb regions of the skull using a dental drill (manufactured by […]), and the right and left olfactory bulbs were removed by sucking them using an aspirator connected to a tip-removed oral sonde, and the head skin was stitched thereafter. In this connection, in the case of the animals for sham-operation, anesthesia, brain fixation and head skin incision were carried out in the same manner as in the animals for olfactory bulbectomy, holes are opened at right and left olfactory bulb regions of the skull and the head skin was stitched without carrying out suction removal of the olfactory bulbs. The rats after olfactory bulbectomy were put into a series of five stainless steel cages, each of which was partitioned into two parts with an acrylic board for individual rearing space, and individually reared under a dark condition. The rats were subjected to the following tests of (2) and (3). • (a) Sham-operation group (12 animals); • (b) Vehicle control group (12 animals); • (c) 3 mg/kg administration group (12 animals) of (2R)-2-propyloctanoic acid; • (d) 10 mg/kg administration group (12 animals) of (2R)-2-propyloctanoic acid; • (e) 10 mg/kg administration group (12 animals) of Milnacipran hydrochloride. [Drug Administration] As shown below, drug solution or vehicle was administered once a day for 8 days, a total of 8 times, at a respective liquid dose of 5 mL/kg. • (a) Sham-operation group: vehicle (0.1% by volume Tween 80) aqueous solution; • (b) Vehicle control group: vehicle (0.1% by volume Tween 80) aqueous solution; • (c) 3 mg/kg administration group of (2R)-2-propyloctanoic acid: a drug solution in which (2R)-2-propyloctanoic acid was prepared to be 0.6 mg/mL with the vehicle; • (d) 10 mg/kg administration group of (2R)-2-propyloctanoic acid: a drug solution in which (2R)-2-propyloctanoic acid was prepared to be 2.0 mg/mL with the vehicle; • (e) 10 mg/kg administration group of milnacipran hydrochloride: a drug solution in which Milnacipran hydrochloride was prepared to be 2.3 mg/mL with the vehicle (Milnacipran itself is included in 2.0 mg/mL). (2) Examination of the Activity for Hyperemotional Reactivity <Evaluation Method> Evaluation of the anxiolytic behavior on an elevated plus maze was carried out once per animal for 5 minutes from 1 hour to 1 hour and 10 minutes after 8 days of the administration, in accordance with the following method. Each animal was softly put on a platform of elevated plus maze which is described later, toward one of the open arms. Thereafter, behavior of the animal was shot using a video camera (CCD-DC430, SONY) set up the elevated plus maze, and the images were analyzed by a video image behavior analyzing device (Etho Vision, manufactured by Noldus). Additionally, the images from the video camera were recorded and handled as reference data. In this connection, when the animal fell, it was regarded as staying on the open arm, and the animal was quickly returned to the place or the open arm where it was present just before the falling. The evaluation was carried out on the respective items shown by A to H (A: frequency of approach to the open arm, B: frequency of approach to the closed arm, C: frequency of approach to the platform, D: stayed time (second) on the open arm, E: stayed time (second) on the closed arm, F: stayed time (second) on the platform, G: defecation frequency on the open arm, platform and closed arm, and H: urination frequency on the open arm, platform and closed arm), by measuring A to F using the video image behavior analyzing device, and by measuring G and H after completion of the measurement. […]

[2] = test system: SD rats; experiment: Water-immersion stress-loaded elevated plus maze test (Test Example 1); assay type: in vivo, rat; conditions: oral, 1 hour before test, written in present tense
Procedure: Two open arms of the same length (50×10 cm) and two closed arms of the same length (50×10 cm) (a wall of 30 cm is set) are set crossing at a right angle at a height of 50 cm from the floor and used as an elevated plus maze apparatus. Constant lighting is effected by attaching white lights to 70 cm over both of the open arms.
Using a pool (40×30×38 cm) charged with water of 22° C. to a depth of 25 cm, 120 seconds of forced swimming is loaded on SD rats of 7 weeks of age (Charles River Japan). After 9 minutes of the water-immersion stress-loading, the rats are allowed to stand still on a central part of the apparatus, and the behavior of the rats are analyzed for 5 minutes by an automatic behavior tracing analysis system (EthoVision Version 3.0, Noldus Information Technology) to calculate its staying time (second) on the open arms.
In this connection, rats of the control group are not subjected to the water-immersion stress-loading. Also, a vehicle is orally administered to the vehicle treating group 1 hour before the commencement of the test, and a test drug of various concentrations is administered to the test drug treating group.

[3] = test system: Wistar male rats; experiment: Confirmation test of anti-stress activity (Test Example 2); assay type: in vivo, rat; conditions: oral, 30 minutes before stress loading; counted 1 hour thereafter; present tense
[4] = test system: Wistar male rats; experiment: Rat learned helplessness test (Test Example 3); assay type: in vivo; conditions: oral once a day for 6 days and 1 hour before shock training on 7th day; present tense
Procedure: A learned helplessness test is carried out using a two way type shuttle box which is divided into two by a gate which can be opened and closed so that shift to right and left is possible. Wistar male rats are used in the test, and a shock training is carried out on the 1st day of the test. The shock training is carried out by putting the rats in the apparatus under an inescapable condition by closing the gate, and applying an electric shock (10 seconds×90 times, intervals of 2 seconds) through a floor grid. In this connection, the rats of the control group are not treated with the electric shock and allowed to stay free in the apparatus for the same period of time. An escape test is carried out after 24 hours of the shock training. The escape test is carried out by putting the rats in the apparatus under an escapable condition by opening the gate, and after 5 minutes of adaptation, by applying a light stimulation and a sound stimulation (conditional stimulation) simultaneously for 5 seconds and subsequently applying an electric shock (no conditional stimulation) for 10 seconds. By regarding a case of no escaping and continuously receiving the electric shock as escape failure, this trial is repeated 40 times (intervals of 5 seconds), and behavior of the rats is analyzed by a behavior analysis software (MED-PC Version 1.16). […]

[5] = dose 3 mg/kg once a day for 8 days
[6] = dose 10 mg/kg once a day for 8 days

Compound: CCCCCC[C@@H](CCC)C(=O)O [(2R)-2-propyloctanoic acid]
- Time (seconds) stayed on closed arm (mean ± S. E.) [1, 5]: 188.7 ± 19.7 s
- Time (seconds) stayed on open arm (mean ± S. E.) [1, 5]: 73.7 ± 17.5 s
- Time (seconds) stayed on closed arm (mean ± S. E.) [1, 6]: 209.4 ± 24.1 s
- Time (seconds) stayed on open arm (mean ± S. E.) [1, 6]: 57.7 ± 22.1 s
- Anxiolytic behavior versus vehicle control group ([1]; olfactory bulbectomized rats, elevated plus maze, result in words): inhibited the anxiolytic behavior
- Staying time on the open arms versus vehicle treating group [2]: prolongs the staying time on the open arms
- Number of defecations versus vehicle treating group [3]: significantly suppress the number of defecations
- Number of escape failures versus vehicle treating group [4]: inhibits increase of the number of escape failures
